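Values below derive from 48-hour exposures of cells grown in 96-well plates, with endpoints linearly interpolated between the two concentrations bracketing the appropriate inhibition level. The concentration for 50% growth inhibition is given as GI50.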 Active and inactive are the calls of the source. Rule as the data show it: active = GI50 up to about 1.1 µM and inactive = higher. Bounds are passed on as bounds.

Common to all, as to test: NCI anticancer screen, dose series, 48 h
The subject of test [1] is CAKI-1.
The test system of test [2] is HCT-15.
For test [3], the system named is SNB-19.
The test system of test [4] is A549.
The test system of test [5] is HCT-116.
Test [6] relates to UO-31.
For test [7], the system named is SK-MEL-28.
Test [8] relates to OVCAR-8.
Test [9] relates to COLO 205.
Test [10] relates to K562.
For test [11], the system named is EKVX.
The test system of test [12] is NCI-H23.
The subject of test [13] is IGROV-1.
In test [14] the test system is M14.
For test [15], the system named is HOP-92.
Test [16] concerns HL-60.
Test [17] concerns SR.

With `COc1ccc(Cc2nccc3cc(OC)c(OC)cc23)cc1`, the GI50 in test [1] is 33 µM (inactive); in test [2], 57.3 µM; in test [3], 54.6 µM (inactive); in [4] it was > 100 µM (inactive); in test [5], 57.4 µM (inactive); in test [6], 16.9 µM (inactive). Further, the GI50 in test [7] is > 100 µM (inactive); in [8] it was 91.8 µM (inactive); in test [9] it was > 100 µM (inactive); in test [10], 48 µM (inactive); in test [11], > 100 µM (inactive); in test [12] it was 37.2 µM (inactive). The GI50 in test [13] was 95.1 µM (inactive); in test [14], > 100 µM (inactive).

For the compound `CC12CCCCC1C(=O)C2(Cl)Cl` (configuration not stated), the GI50 in [1] was 2.15 µM (inactive); in test [2], 3.35 µM; in test [3] it was 3.31 µM (inactive); in [15] it was 1.69 µM (inactive); in [4] it was 3.18 µM (inactive); in test [5] it was 1.69 µM (inactive). For the same compound, the GI50 is 2.18 µM (inactive) in test [6]; 1.8 µM (inactive) in [7]; 2.04 µM (inactive) in test [8]; 1.83 µM (inactive) in test [10]; 2.76 µM (inactive) in test [11]; 2.39 µM (inactive) in test [12]. Further, the figures for the GI50 in test [13], in test [14] and in [16] were 2.96 µM (inactive), 2.03 µM (inactive) and 1.76 µM (inactive), respectively.

On to `O=C(O)C12C=CC(C1)c1ccccc12` (configuration not stated), for which the GI50 in test [1] is > 100 µM (inactive); in test [2], greater than 100 µM; in [3], > 100 µM (inactive); in [15], > 100 µM (inactive); in test [17], > 100 µM (inactive); in test [4], > 100 µM (inactive). Besides, the GI50 in test [5], in test [6], in test [7], in test [8], in [9] and in test [10] was > 100 µM (inactive) each time. Besides, the GI50 in test [12], in [13], in test [14] and in test [16] was > 100 µM (inactive) in each case.

Turning to `CCCCN(CCCC)CC(C(=O)Nc1ccccc1)/C(C)=N\NC(=O)c1ccncc1` (configuration not stated), the GI50 in test [1] is > 100 µM (inactive); in [2] it was greater than 100 µM; in [3] it was > 100 µM (inactive); in test [15] it was > 100 µM (inactive); in test [17] it was > 100 µM (inactive); in test [4] it was > 100 µM (inactive). The GI50 in [5] is 92 µM (inactive); in test [6] it was 28.5 µM (inactive); in test [7], > 100 µM (inactive); in test [8] it was > 100 µM (inactive); in test [9], > 100 µM (inactive); in test [10] it was > 100 µM (inactive). Further, the GI50 in test [12] is > 100 µM (inactive); in test [13], > 100 µM (inactive); in [14] it was > 100 µM (inactive); in test [16], 98.2 µM (inactive).

`COc1ccccc1C(N)c1ccccc1` (configuration not stated): the GI50 was greater than 100 µM in [2]; > 100 µM (inactive) in test [3]; 36 µM (inactive) in test [15]; > 100 µM (inactive) in test [4]; > 100 µM (inactive) in test [5]; > 100 µM (inactive) in [6]. In addition, the GI50 in test [7], in test [8], in test [9], in test [10], in test [11] and in test [12] was > 100 µM (inactive) each time. Also, the GI50 in test [13], in test [14] and in test [16] was > 100 µM (inactive) each time.

On to `COc1ccc(C2S/C(=C\c3cc(OC)c(OC)c(OC)c3)C(=O)N2NC(=O)Cc2ccccc2)cc1` (configuration not stated), for which the GI50 in test [1] is > 100 µM (inactive); in [2], greater than 100 µM; in test [15], > 100 µM (inactive); in [17] it was > 100 µM (inactive); in test [4] it was > 100 µM (inactive); in [5], 89.9 µM (inactive). Also, the GI50 was 48 µM (inactive) in test [6]; > 100 µM (inactive) in test [7]; > 100 µM (inactive) in test [8]; > 100 µM (inactive) in [9]; > 100 µM (inactive) in test [10]; > 100 µM (inactive) in test [12]. In addition, the GI50 in test [13], in test [14] and in test [16] was > 100 µM (inactive) throughout.

For `Nc1ccn(CCOC(c2ccccc2)P(=O)(O)O)c(=O)n1` (configuration not stated), the GI50 in test [1] was > 100 µM (inactive); in test [2], greater than 100 µM; in test [3] it was > 100 µM (inactive); in test [17], > 100 µM (inactive); in test [4], > 100 µM (inactive); in test [5] it was > 100 µM (inactive). The GI50 in test [6], in [7], in [8], in test [9], in test [11] and in [12] was > 100 µM (inactive) in each case. The GI50 in [13] and in test [16] was > 100 µM (inactive) throughout.

`CC(C)(C)C(=O)Cc1cc2c(cc1C(=O)O)S(=O)(=O)NC(C(C)(C)C)=C2`: the GI50 in [1], in test [3], in test [15], in [17], in test [4] and in test [5] was > 100 µM (inactive) throughout. In addition, the GI50 in test [6], in [7], in test [8], in [9], in test [10] and in [11] was > 100 µM (inactive) in each case. The GI50 in test [12], in [14] and in test [16] was > 100 µM (inactive) throughout.

For `Cn1ncc2cc3c(Nc4ccc(Cl)cc4)cccc3nc21`, the GI50 was 15.5 µM (inactive) in [1]; 14.1 µM in test [2]; 37.8 µM (inactive) in test [3]; 6.67 µM (inactive) in [15]; 18.2 µM (inactive) in test [4]; 7.4 µM (inactive) in test [6]. Moreover, the GI50 in [7] was 15.1 µM (inactive); in [8], 19 µM (inactive); in test [9], 13.7 µM (inactive); in [10] it was 20 µM (inactive); in test [11], 18.1 µM (inactive); in test [12], 22.2 µM (inactive). For the same compound, the GI50 is 15.3 µM (inactive) in [13], 18.8 µM (inactive) in test [14] and 11 µM (inactive) in test [16].

As for `COC(=O)c1cc(C)n(NC(=O)OC(C)(C)C)c1C`, the GI50 was > 100 µM (inactive) in test [1]; greater than 100 µM in test [2]; > 100 µM (inactive) in [3]; > 100 µM (inactive) in [4]; > 100 µM (inactive) in test [5]; > 100 µM (inactive) in [6]. The GI50 in test [7], in test [8], in test [9], in test [10], in [11] and in test [12] was > 100 µM (inactive) in each case. The GI50 in test [13], in [14] and in test [16] was > 100 µM (inactive) each time.

In the case of `NC(=O)c1csc(C2OC(COP(=O)(O)CP(=O)(O)OCC3OC(n4cnc5c(N)ncnc54)C(O)C3O)C(O)C2O)n1` (configuration not stated), the GI50 is > 100 µM (inactive) in [1]; 78.3 µM in test [2]; > 100 µM (inactive) in test [3]; > 100 µM (inactive) in test [15]; > 100 µM (inactive) in [4]; > 100 µM (inactive) in test [6]. Further, the GI50 in [7] was > 100 µM (inactive); in test [8] it was > 100 µM (inactive); in test [9], 91.2 µM (inactive); in test [10], 55.3 µM (inactive); in test [11] it was > 100 µM (inactive); in test [12], > 100 µM (inactive). In addition, the GI50 in [13], in [14] and in [16] was > 100 µM (inactive) throughout.

Turning to `CCCCCCCCCCCCCCCC[N+](C)(C)Cc1ccc(C[N+](C)(C)CCCCCCCCCCCCCCCC)cc1`, the GI50 is 10.1 µM (inactive) in [1]; 3.66 µM in test [2]; 2.52 µM (inactive) in test [3]; 2.39 µM (inactive) in test [17]; 2.09 µM (inactive) in [4]; 2.59 µM (inactive) in test [5]. Moreover, the GI50 in test [6] was 25.8 µM (inactive); in test [7], 2.3 µM (inactive); in [8], 2.04 µM (inactive); in test [9], 2.7 µM (inactive); in test [10], 2.06 µM (inactive); in [11], 3 µM (inactive). The GI50 in test [12] was 1.88 µM (inactive); in [13], 2.43 µM (inactive); in test [14], 2.89 µM (inactive); in [16] it was 2.3 µM (inactive).

Take `COC1CC(OC)C2OC(c3ccccc3)OCC2O1` (configuration not stated): the GI50 in test [2] was greater than 100 µM; in test [17] it was > 100 µM (inactive); in test [4], > 100 µM (inactive); in test [5], > 100 µM (inactive); in [6], > 100 µM (inactive); in test [7], > 100 µM (inactive). The GI50 in [8], in [10], in test [11], in test [12], in [13] and in [14] was > 100 µM (inactive) in each case. Besides, in test [16], the GI50 is > 100 µM (inactive).

`Cc1cccc2c(O)cc(=O)oc12`: the GI50 in test [3], in test [17], in [4], in test [5], in [6] and in test [7] was > 100 µM (inactive) in each case. For the same compound, the GI50 in [8], in test [10], in test [11], in test [12], in test [13] and in test [14] was > 100 µM (inactive) throughout. The GI50 in [16] was > 100 µM (inactive).

The values are drawn from ChEMBL document CHEMBL1201862, “PubChem BioAssay data set” (2004).
